Laboratory results: ChEMBL document CHEMBL4651402, “Screening of ~5500 FDA-approved drugs and clinical candidates for anti-SARS-CoV-2 activity” (2021)

System: SARS-CoV-2
Assay: microbe, parasite or virus in culture
Conditions: Severe acute respiratory syndrome coronavirus 2, Vero C1008, 48 h

Row | SMILES | IC50 [µM] | IC50 (read-out: pIC50 (converted)) [µM]
1 | CCCCC(=O)N(Cc1ccc(-c2ccccc2-c2nnn[nH]2)cc1)[C@H](C(=O)O)C(C)C | > 20 | > 20
2 | O=C(O)C1(C(=O)O)CCC1 | > 20 | > 20
3 | C[N+]1(C)C[C@H](O)C[C@H]1C(=O)O | > 20 | > 20
4 | C=C1c2c(Cl)ccc(O)c2C(=O)C2=C(O)[C@]3(O)C(=O)C(C(N)=O)=C(O)[C@@H](N(C)C)[C@@H]3[C@@H](O)C12 (stereo not given in full) | > 20 | > 20
5 | CC[C@@H](C(N)=O)N1CCCC1=O | > 20 | > 20
6 | COC(=O)Nc1nc2cc(SC(C)C)ccc2[nH]1 | > 20 | > 20
7 | CS(=N)(=O)CC[C@H](N)C(=O)O (stereo not given in full) | > 20 | > 20
8 | COc1nccnc1NS(=O)(=O)c1ccc(N)cc1 | > 20 | > 20
9 | CC(C)N(CCNC(=O)CN1CCCC1=O)C(C)C | > 20 | > 20
10 | C/C=C1/C[N+]2(C)CCC34C(=C(C=O)[C@H]1C[C@@H]32)Nc1ccccc14 (stereo not given in full) | > 20 | > 20
11 | Cc1noc(COc2ccccc2OCC(O)CNC(C)(C)C)n1 (stereo not given) | > 20 | > 20
12 | CO[C@H]1C=C2CCN(C)[C@H]2C2c3cc4c(cc3C(=O)O[C@@H]21)OCO4 (stereo not given in full) | > 20 | > 20
13 | Cc1n[nH]c(=O)[nH]c1=O | > 20 | > 20
14 | C[N+]1(CCC(C(N)=O)(c2ccccc2)c2ccccc2)CCCCC1 | > 20 | > 20
15 | CNC(=O)c1ccc2cc([C@]3(O)CCn4cncc43)ccc2c1 | > 20 | > 20
16 | CC(C(N)C(=O)NC(C(=O)O)C1OC(n2ccc(=O)[nH]c2=O)C(O)C1O)C(O)c1ccc(O)cn1 (stereo not given) | > 20 | > 20
17 | CC1=CCCC2C1(C)CCC(C)C2(C)Cc1cc(O)ccc1O (stereo not given) | > 20 | > 20
18 | Cc1cc(S(N)(=O)=O)ccc1NC(=O)COc1ccc(Cl)cc1C(=O)c1cc(Cl)cc(C#N)c1 | > 20 | > 20
19 | O=C1CCC(c2ccccc2)(C2CCN(C/C=C/c3ccccc3)CC2)C(=O)N1 (stereo not given) | > 20 | > 20
20 | NC(CC(=O)NO)C(=O)O (stereo not given) | > 20 | > 20

Row | SMILES | IC50 [µM] | IC50 (read-out: pIC50 (converted)) [µM]
21 | CCC(CC)[C@H](c1ccc(Nc2nc3ccccc3s2)cc1)n1cncn1 | > 20 | > 20
22 | O=[N+]([O-])OC1COC2C(O[N+](=O)[O-])COC12 (stereo not given) | > 20 | > 20
23 | Nc1nc(F)nc2c1ncn2[C@@H]1O[C@H](CO)[C@@H](O)[C@H]1O | > 20 | > 20
24 | O=C(O)[C@H](O)[C@@H](O)[C@H](O[C@@H]1O[C@H](CO)[C@H](O)[C@H](O)[C@H]1O)[C@H](O)CO | > 20 | > 20
25 | CCCN1CCC[C@@H](c2cccc(S(C)(=O)=O)c2)C1 | > 20 | > 20
26 | NC(=O)N=NC(N)=O | > 20 | > 20
27 | CC(C)CN(C[C@@H](O)[C@H](Cc1ccccc1)NC(=O)[C@H](CC(N)=O)NC(=O)c1ccc2ccccc2n1)C(=O)NC(C)(C)C | > 20 | > 20
28 | O=C1N[11C](=O)C(c2ccccc2)(c2ccccc2)N1 | > 20 | > 20
29 | CCCCCCC1C(=O)O[C@H](C)[C@H](NC(=O)c2cccc(NC=O)c2O)C(=O)O[C@@H](C)[C@@H]1OC(=O)CC(C)C (stereo not given in full) | > 20 | > 20
30 | CN1C[C@H](CO)C=C2c3cccc4[nH]cc(c34)C[C@H]21 | > 20 | > 20
31 | CC(=O)OCC(=O)C1(O)C(C)CC2C3CC(F)C4=CC(=O)C=CC4(C)C3C(O)CC21C (stereo not given) | > 20 | > 20
32 | CN1CC[C@@]2(C)c3cc(O)ccc3N(C)[C@H]12 | > 20 | > 20
33 | CC(=O)Oc1cccc(C)c1 | > 20 | > 20
34 | CC(C)(O/N=C(/C(=O)NC1C(=O)N2C(C(=O)O)=C(C[n+]3ccccc3)CSC12)c1csc(N)n1)C(=O)O (stereo not given) | > 20 | > 20
35 | C=C1[C@H](n2ccc(N)nc2=O)O[C@H](CO)[C@H]1O | > 20 | > 20
36 | CC(=O)OC1CCC2(C)C(=CCC3C2CCC2(C)C(C(C)CCCC(C)C)CCC32)C1 (stereo not given) | > 20 | > 20
37 | CC1(C)SC2C(NC(=O)C(NC(=O)N3CCNC3=O)c3ccccc3)C(=O)N2C1C(=O)O (stereo not given) | > 20 | > 20
38 | CC12C=CC(=O)C=C1C(F)CC1C2C(O)CC2(C)C1CCC2(O)C(=O)CO (stereo not given) | > 20 | > 20
39 | CC[C@H](C)C[C@H](C)CCCCCCCCC(=O)N[C@H]1C[C@@H](O)[C@H](NCCN)NC(=O)[C@@H]2[C@@H](O)CCN2C(=O)[C@H]([C@H](O)CCN)NC(=O)C([C@H](O)[C@@H](O)c2ccc(O)cc2)NC(=O)[C@@H]2C[C@@H](O)CN2C(=O)C([C@@H](C)O)NC1=O (stereo not given in full) | > 20 | > 20
40 | CC(=O)C1CCC2C3CCC4CC(O)CCC4(C)C3CC(O)C12C (stereo not given) | > 20 | > 20

Row | SMILES | IC50 [µM] | IC50 (read-out: pIC50 (converted)) [µM]
41 | CCC(C)CCCCC(=O)N[C@@H](CCNCS(=O)(=O)O)C(=O)N[C@H](C(=O)N[C@@H](CCNCS(=O)(=O)O)C(=O)N[C@H]1CCNC(=O)[C@H]([C@@H](C)O)NC(=O)[C@@H](CCNCS(=O)(=O)O)NC(=O)[C@@H](CCNCS(=O)(=O)O)NC(=O)[C@H](CC(C)C)NC(=O)[C@@H](CC(C)C)NC(=O)[C@H](CCNCS(=O)(=O)O)NC1=O)[C@@H](C)O (stereo not given in full) | > 20 | > 20
42 | CN1[C@@H]2CC(=O)C[C@H]1[C@H](O)C2 | > 20 | > 20
43 | CC12CCC3C(CC[C@H]4CC(=O)CCC34C)C1CCC2C(=O)CO (stereo not given in full) | > 20 | > 20
44 | CC1C(=O)CC[C@@H]2C1(C)CC[C@H]1C2(C)CCC2(C)C3CC(C)(C)CCC3(C)CCC12C (stereo not given in full) | > 20 | > 20
45 | C=CC[N@@+]12CC[C@]34c5ccccc5N5/C=C6\C7N(/C=C(/C53)[C@@H](C[C@@H]41)/C(=C/CO)C2)c1ccccc1[C@@]71CC[N@@+]2(CC=C)C/C(=C\CO)[C@@H]6C[C@@H]12 (stereo not given in full) | > 20 | > 20
46 | CC(=O)OC1CCC2(C)C3CC(=O)C4(C)C(CC5O[C@]6(CCC(C)CO6)C(C)C54)C3CC[C@H]2C1 (stereo not given in full) | > 20 | > 20
47 | CCC(=O)O[C@@H]1CC(=O)O[C@H](C)C/C=C\C=C/[C@@H](O)[C@H](C)C[C@H](CC=O)[C@H](O[C@H]2O[C@H](C)[C@@H](O[C@H]3C[C@@](C)(O)[C@@H](OC(=O)CC)[C@H](C)O3)[C@H](N(C)C)[C@H]2O)[C@H]1OC | > 20 | > 20
48 | CC(=O)OCC(=O)[C@@]1(O)CCC2C3CCC4=CC(=O)CC[C@]4(C)C3=CC[C@@]21C (stereo not given in full) | > 20 | > 20
49 | OC(c1ccccc1)(c1ccccc1)[C@@H]1C[C@H]1c1ccncc1 | > 20 | > 20
50 | CN1c2ccccc2[C@H](NCCCCCCC(=O)O)c2ccc(Cl)cc2S1(=O)=O | > 20 | > 20
51 | CC12CCC(=O)C=C1CCC1C2C(O)CC2(C)C1CCC2(O)C(=O)COP(=O)(O)O (stereo not given) | > 20 | > 20
52 | CC(=O)OC1CCC2(C)C(=CCC3C2CCC2(C)C(OC(=O)c4ccccc4)CCC32)C1 (stereo not given) | > 20 | > 20
53 | NC(=O)CCC/N=C(/c1ccc(Cl)cc1)c1cc(F)ccc1O | > 20 | > 20
54 | CCC(C)C(NC(=O)C(CCC(N)=O)NC(=O)C1CCCN1C(=O)C(CCCNC(=N)N)NC(=O)C1CCCN1C(=O)C(Cc1c[nH]c2ccccc12)NC(=O)C1CCC(=O)N1)C(=O)N1CCCC1C(=O)N1CCCC1C(=O)O (stereo not given) | > 20 | > 20
55 | CC(=O)O[C@H]1C(=O)[C@@]2(C)C([C@H](OC(=O)c3ccccc3)[C@]3(O)C[C@H](OC(=O)[C@H](O)[C@@H](NC(=O)c4ccccc4)c4ccccc4)C(C)=C1C3(C)C)[C@]1(OC(C)=O)CO[C@@H]1C[C@@H]2O (stereo not given in full) | > 20 | > 20
56 | [N-]=[N+]=N[C@]1(CO)O[C@@H](n2ccc(N)nc2=O)[C@@H](O)[C@@H]1O | > 20 | > 20
57 | COC(=O)c1cnc2n1CCc1ccccc1C2=C1CCN(CCc2ccc(OCc3ccc4ccccc4n3)cc2)CC1 | > 20 | > 20
58 | COc1ccc(-c2ccc(Cn3c(CC(C)(C)C(=O)O)c(SC(C)(C)C)c4cc(OCc5ccccn5)ccc43)cc2)cn1 | > 20 | > 20
59 | O=C(NCNC(=O)NC1C(=O)NC(=O)N1CO)NC1C(=O)NC(=O)N1CO (stereo not given) | > 20 | > 20
60 | Nc1nc(=O)n([C@H]2CC[C@@H](CO)O2)cc1F | > 20 | > 20
